The subject of experiment [1] is MCA (middle cerebral artery) occlusion mouse models. Put plainly: Cerebral ischemic injury, MCA occlusion mouse model (TTC staining). The experiment is classed as in vivo. The settings on record: 40 mg/kg intraperitoneal 4 hours before ischemia, 24 hours after reperfusion, vs DMSO, n=1. Here is the method: Two types of compounds (compounds #4 and 35) (40 mg/kg of mouse body weight) were each intraperitoneally administered to a mouse 4 hours before ischemia (n=1). A vehicle (DMSO) was administered to a control (n=1). Anesthesia was induced in each mouse with 4% halothane and oxygen and maintained by the intraperitoneal administration of ketamine (40 mg/kg) and xylazine (4 mg/kg) at 30-minute intervals. After the induction of systemic anesthesia, bifurcation of the common carotid artery was exposed under a microscope. A 6-0 nylon thread having a silicon-coated tip was inserted from the internal carotid artery toward the central side so that its tip reached the anterior communicating artery. The common carotid artery was further ligated to block blood flow into the middle cerebral artery. After the ischemic burden for 30 minutes, the nylon thread was removed so that the ligated common carotid artery was released to induce reperfusion.
24 hours after the reperfusion, each mouse was cervically dislocated and then decapitated to excise the brain. Five coronal sections of the cerebrum having a thickness of 2 mm were prepared from the boundary between the cerebrum and the cerebellum. The coronal sections of the cerebrum were stained with TCC through a reaction at 37° C. for 20 minutes with a TTC solution diluted to 1.5% with PBS. […]

Experiment [2] concerns HIF-α. The experiment in a line: HIF-α concentration in Hep3B cells (Total HIF-1α Cell-Based ELISA). The arrangement: species or system human. The settings on record: compound 10 μM, 20% O2, 24 hours. As for the experimental part: The Hep3B cells were seeded at 1×10^4 cells/well to a 24-well cell culture plate and then cultured under normal oxygen (20% O2) for 24 hours. Each of 3 types of compounds (compounds #4, 21, and 35) was mixed at a concentration of 10 μM into RPMI1640 common medium 1. After further culture under normal oxygen (20% O2) for 24 hours, the concentration of HIF-α produced in the medium was measured using Total HIF-1 α Cell-Based ELISA Kit (manufactured by R&D Systems, Inc.). Hep3B cells cultured in the absence of the compound (DMSO added [1%]) (“Control” of FIG. 5) were used as a negative control. Hep3B cells cultured in the presence of HIF activators (FG-4592 [10 μM], DMOG [10 μM], and ciclopirox[10 μM]) (“FG”, “DMOG”, and “Ciclo”, respectively, of FIG. 5) were used as positive controls.

In experiment [3] the test system is erythropoietin. Put plainly: Erythropoietin production in vivo in mice, oral administration for 7 days. Particulars: 7 consecutive days, plasma 24 hours after final administration, vs corn oil, DMSO+corn oil or no administration. Further details: species or system mouse. Here is the method:
A mixed solution (200 μl) of each of 4 types of compounds (compounds #4, 5, 21, and 35) (10 mg/100 μl of DMSO) (10 μl) and corn oil (190 μl) was prepared. This mixed solution (200 μl) was orally administered to each mouse (C57BL/6N 8 W, male, 21-25 g) between 15:00 to 18:00 every day using a sonde. This administration was carried out for 7 consecutive days. Mice orally given corn oil or DMSO and corn oil as well as non-administered mice were used as controls.
24 hours after the final administration, each mouse was cervically dislocated, and 500 μl of blood was collected from the heart. Then, an anticoagulant (10 μl of heparin) was added thereto, and the resulting blood was centrifuged (12000 rpm×20 min, 4° C.) to isolate plasma. The plasma concentration […] of erythropoietin was measured using a kit (Quantikine Mouse/Rat Epo Immunoassay, manufactured by R&D Systems, Inc.).

For experiment [4], the system named is Leigh cells. The experiment in a line: Cell death caused by oxidative stress (BSO) in Leigh syndrome patient fibroblasts. It counts as cell-based, human. Particulars: compound 10 μM, 4 days after BSO treatment. Here is the method: In Examples 2 to 7 and Reference Example 1 below, an erythropoietin-producing human hepatocellular carcinoma cell Hep3B (obtained from ATCC [American Type Culture Collection]) was cultured and maintained under conditions of 5% CO2/20% O2 and 37° C. in an RPMI1640 (manufactured by Life Technologies, Inc./GIBCO) medium containing 100 U/mL penicillin (manufactured by Life Technologies, Inc./GIBCO), 100 μg/mL streptomycin (manufactured by Life Technologies, Inc./GIBCO), and 10% fetal bovine serum (FBS) (manufactured by Life Technologies, Inc./GIBCO) (hereinafter, referred to as “RPMI1640 common medium 1”). In Example 15 below, Leigh syndrome patients were subjected to skin biopsy to obtain skin fibroblast cells, which were then primarily cultured under conditions of 5% CO2/20% O2 and 37° C. in a DMEM low glucose (manufactured by Life Technologies, Inc./GIBCO) medium containing 100 U/mL penicillin (manufactured by Life Technologies, Inc./GIBCO), 100 μg/mL streptomycin (manufactured by Life Technologies, Inc./GIBCO), and 1% FBS (manufactured by Life Technologies, Inc./GIBCO) (hereinafter, referred to as “DMEM low glucose common medium”) to isolate cells (Leigh cells). In Example 13 below, a human kidney-derived cell line HK-2 (obtained from ATCC) was cultured and maintained under conditions of 5% CO2/20% O2 and 37° C. in a DMEM/F12 (manufactured by Life Technologies, Inc./GIBCO) medium containing 100 U/mL penicillin (manufactured by Life Technologies, Inc./GIBCO), 100 μg/mL streptomycin (manufactured by Life Technologies, Inc./GIBCO), and 10% fetal bovine serum (manufactured by Life Technologies, Inc./GIBCO) (hereinafter, referred to as “DMEM/F12 common medium”). In Example 14 below, a rat islet of Langerhans-derived cell line ISN-1e (kindly provided by Hisamitsu Ishihara, Nihon University School of Medicine) was cultured and maintained under conditions of 5% CO2/20% O2 and 37° C. in an RPMI1640 (manufactured by Life Technologies, Inc./GIBCO) medium containing 10 mM HEPES (manufactured by Sigma-Aldrich Corp.), 2 mM glutamine (manufactured by Sigma-Aldrich Corp.), 50 μM β-mercaptoethanol (manufactured by Sigma-Aldrich Corp.), 100 U/mL penicillin (manufactured by Life Technologies, Inc./GIBCO), 100 μg/mL streptomycin (manufactured by Life Technologies, Inc./GIBCO), and 10% FBS (manufactured by Life Technologies, Inc./GIBCO) (hereinafter, referred to as “RPMI1640 common medium 2”).
The Leigh cells were seeded at 4×10^4 cells/well to a 24-well cell culture plate and then cultured for 24 hours. The glutathione synthesis inhibitor BSO (L-buthionine sulphoximine) (manufactured by Sigma-Aldrich Corp.) was mixed at […] into a medium. After culture for 24 hours in the presence of BSO, each of 5 types of compounds (compounds #2, 4, 5, 21, and 35) was mixed at 10 μM into the medium. After culture for 4 days in the presence of these 5 types of compounds, the number of live cells was measured using Cell Counting Kit-8 (manufactured by Dojindo Laboratories) to calculate the survival rate of the cells (“BSO+#2”, “BSO+#4”, “BSO+#5”, “BSO+#21”, and “BSO+#35” of FIG. 17). […]

Turning to `COc1cc(COc2ccc3[nH]cc(CC(=O)O)c3c2)cc(OC)c1` [compound #35, 5-(3,5-Dimethoxybenzyloxy)-3-indoleacetic acid], the “volume of the cerebral infarction site” value in experiment [1] is “decreased”. The “HIF-α concentration in the Hep3B cells” value in experiment [2] is recorded as “increase the HIF-α concentration”. Moreover, the “amount of erythropoietin in the mouse blood” value in experiment [3] is on record as “increased”. For the same molecule, in experiment [4], the “cell death of the Leigh cells by BSO” value is “efficiently suppress the cell death”.

The values are drawn from US10004718B2, “Erythropoietin expression promoter” (TOHOKU UNIVERSITY, priority 2012, dated 2018).
